*1 amine or outer side, *2 acyl side, *3 side chain or, on linkers, in order; H or OH if unused. Where a SMILES comes first, the peptide text is derived from it. Bridges are numbered along the chain shown (N, C = ends). [ ]: non-standard residue; d: D form. The star is where a group is joined. DOTA = O=C(O)CN1CCN(CC(=O)O)CCN(CC(=O)*)CCN(CC(=O)O)CC1; Pro(trans-4-F) = O=C(O)[C@@H]1C[C@@H](F)CN1; Pro(cis-4-F) = O=C(O)[C@@H]1C[C@H](F)CN1; Pro(4R-NH2) = N[C@H]1CN[C@H](C(=O)O)C1; Dopa = N[C@@H](Cc1ccc(O)c(O)c1)C(=O)O; NMeY = CN[C@@H](Cc1ccc(O)cc1)C(=O)O; NMeR = CN[C@@H](CCCNC(=N)N)C(=O)O; Hyp = O=C(O)[C@@H]1C[C@@H](O)CN1; Pentanoyl(4-Me) = CC(C)CCC(=O)*; Cit = NC(=O)NCCC[C@H](N)C(=O)O; Butoxycarbonyl = CCCCOC(=O)*; Suc = O=C(CCC(=O)[*:2])[*:1]; X9 = OC[C@H](CS[*:1])N[*:2]; Orn = NCCC[C@H](N)C(=O)O; Api = NC1(C(=O)O)CCNCC1; Nva = CCC[C@H](N)C(=O)O; Pentanoyl = CCCCC(=O)*; CO = O=C([*:1])[*:2]; Ahx = NCCCCCC(=O)O; NHBu = CCCCN*
What was measured:
[1] = target: T1, uPAR-expressing HEC-265 human endometrial adenocarcinoma cells (Homo sapiens, UniProt Q03405); assay: Competitive FACS binding assay; settings: pIC50 category of FACS binding
T1 construct: Cell surface uPAR-expressing HEC-265 human endometrial adenocarcinoma cells; host or cells: HEC-265
T1 sequence (Q03405 23-335): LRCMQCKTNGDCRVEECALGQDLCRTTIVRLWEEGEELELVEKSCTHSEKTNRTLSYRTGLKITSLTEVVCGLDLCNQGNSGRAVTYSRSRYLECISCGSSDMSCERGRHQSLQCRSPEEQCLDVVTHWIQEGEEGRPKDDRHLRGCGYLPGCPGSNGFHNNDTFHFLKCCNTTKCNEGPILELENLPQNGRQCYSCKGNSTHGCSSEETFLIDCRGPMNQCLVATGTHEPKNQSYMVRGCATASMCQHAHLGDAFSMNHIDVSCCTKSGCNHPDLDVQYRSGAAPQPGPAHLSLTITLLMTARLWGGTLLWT
Outline: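 HEC-265 cells incubated 1 h at 4 °C with 10 nM biotinylated uPAR peptide tracer plus increasing test compound, then stained with APC-streptavidin on ice. Median APC fluorescence by flow cytometry; 4PL fit gives pIC50.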

human uPAR (uPAR-Fc) = target: T2, human uPAR (uPAR-Fc) (Homo sapiens, UniProt Q03405); assay: Surface plasmon resonance (SPR) assay, single cycle kinetics; type: binding; settings: pKD category for uPAR SPR activity assay; uPAR-Fc on Protein A-Chip, 25°C; read-out: pKD CAT (converted)
T2 construct: comprising amino acids Leu23-Arg303 according to UniProt entry Q03405.1; purchased R&D Systems 10378-UK-100
T2 sequence (Q03405 23-303): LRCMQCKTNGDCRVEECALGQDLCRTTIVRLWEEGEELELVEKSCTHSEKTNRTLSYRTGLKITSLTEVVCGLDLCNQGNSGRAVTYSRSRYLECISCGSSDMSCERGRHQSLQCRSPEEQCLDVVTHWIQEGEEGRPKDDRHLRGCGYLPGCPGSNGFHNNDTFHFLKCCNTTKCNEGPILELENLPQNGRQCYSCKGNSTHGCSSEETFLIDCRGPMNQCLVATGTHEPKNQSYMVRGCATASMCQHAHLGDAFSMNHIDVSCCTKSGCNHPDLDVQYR
Outline: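 uPAR-Fc (Leu23-Arg303 extracellular domains, human IgG1 Fc) captured on Protein A chip to ~2000 RU; single-cycle kinetics at 25°C in HEPES running buffer pH 7.4 with 0.1% DMSO. KD from double-referenced sensorgrams fitted to 1:1 Langmuir model, reported as pKD.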

IC50 [1]	Kd (human uPAR (uPAR-Fc))	SMILES
≤ 10 nM	< 1.58 nM	CCCCC(=O)N[C@H]1CSSC[C@@H](C(N)=O)NC(=O)[C@H](CCC)NC(=O)[C@H]([C@@H](C)CC)NC(=O)[C@H](CC(C)C)NC(=O)[C@@H]2CCCN2C(=O)[C@H](Cc2ccccc2)NC(=O)[C@H](Cc2ccc(O)cc2)NC(=O)[C@H](CCC(N)=O)NC(=O)[C@H](CCCNC(=N)N)NC1=O [UPAR-281, Pent-[Cys-Arg-Gln-Tyr-Phe-Pro-Leu-Ile-Nva-Cys]-NH2] (Pentanoyl-CRQYFPLI[Nva]C-NH2; disulfide 1-10)
≥ 126 nM	> 100 nM	CC[C@H](C)[C@@H]1NC(=O)[C@@H](C)NC(=O)[C@@H]2CCCN2C(=O)[C@H](Cc2ccccc2)NC(=O)[C@H](Cc2ccc(O)cc2)N(C)C(=O)[C@H](CCC(N)=O)NC(=O)[C@H](CCCNC(N)=O)NC(=O)[C@@H](NC(=O)CCC(C)C)CSSC[C@@H](C(N)=O)NC(=O)[C@H](CC(C)C)NC1=O [UPAR-285, iHex-[Cys-Cit-Gln-Nmy-Phe-Pro-ala-Ile-Leu-Cys]-NH2] ({Pentanoyl(4-Me)}-C[Cit]Q[NMeY]FP[dA]ILC-NH2; disulfide 1-10)
≤ 10 nM	< 1.58 nM	CCCCNC(=O)N[C@H]1CSSC[C@@H](C(N)=O)NC(=O)[C@H](CC(C)C)NC(=O)[C@H]([C@@H](C)CC)NC(=O)[C@@H](C)NC(=O)[C@@H]2CCCN2C(=O)[C@H](Cc2ccccc2)NC(=O)[C@H](Cc2ccc(O)cc2)NC(=O)[C@H](CCC(N)=O)NC(=O)[C@H](CCCNC(N)=O)NC1=O [UPAR-286, nBuCAyl-[Cys-Cit-Gln-Tyr-Phe-Pro-ala-Ile-Leu-Cys]-NH2] ({NHBu-CO}-C[Cit]QYFP[dA]ILC-NH2; disulfide 1-10)
≥ 126 nM	> 100 nM	CC[C@H](C)[C@@H]1NC(=O)[C@@H](C)NC(=O)[C@@H]2CCCN2C(=O)[C@H](Cc2ccccc2)NC(=O)[C@H](Cc2ccc(O)cc2)NC(=O)[C@H](CCC(N)=O)NC(=O)[C@H](CCCNC(=N)N)N(C)C(=O)[C@@H](NC(=O)CCC(C)C)CSSC[C@@H](C(N)=O)NC(=O)[C@H](CC(C)C)NC1=O [UPAR-287, iHex-[Cys-Nmr-Gln-Tyr-Phe-Pro-ala-Ile-Leu-Cys]-NH2] ({Pentanoyl(4-Me)}-C[NMeR]QYFP[dA]ILC-NH2; disulfide 1-10)
≤ 10 nM	< 1.58 nM	CC[C@H](C)[C@@H]1NC(=O)[C@H](C)NC(=O)[C@@H]2CCCN2C(=O)[C@H](Cc2ccccc2)NC(=O)[C@H](Cc2ccc(O)cc2)NC(=O)[C@H](CCC(N)=O)NC(=O)[C@H](CCCNC(=N)N)NC(=O)[C@@H](NC(=O)[C@H](CC(C)C)NC(=O)[C@H](CC(=O)O)NC(C)=O)CSSC[C@@H](C(N)=O)NC(=O)[C@H](CC(C)C)NC1=O [UPAR-290, Ac-Asp-Leu-[Cys-Arg-Gln-Tyr-Phe-Pro-Ala-Ile-Leu-Cys]-NH2] (Ac-DLCRQYFPAILC-NH2; disulfide 3-12)
≤ 10 nM	< 1.58 nM	CC[C@H](C)[C@@H]1NC(=O)[C@@H](C)NC(=O)[C@@H]2CCCN2C(=O)[C@H](Cc2ccccc2)NC(=O)[C@H](Cc2ccc(O)cc2)NC(=O)[C@H](CCC(N)=O)NC(=O)[C@H](CCCNC(=N)N)NC(=O)[C@@H](NC(=O)[C@H](CC(C)C)NC(=O)CCCCCNC(=O)CN2CCN(CC(=O)O)CCN(CC(=O)O)CCN(CC(=O)O)CC2)CSSC[C@@H](C(N)=O)NC(=O)[C@H](CC(C)C)NC1=O [UPAR-291, DOTA-Ahx-Leu-[Cys-Arg-Gln-Tyr-Phe-Pro-ala-Ile-Leu-Cys]-NH2] ({DOTA-Ahx}-LCRQYFP[dA]ILC-NH2; disulfide 2-11)
≤ 10 nM	< 1.58 nM	CC[C@H](C)[C@@H]1NC(=O)[C@@H]2C[C@@H](N)CN2C(=O)[C@@H]2CCCN2C(=O)[C@H](Cc2ccccc2)NC(=O)[C@H](Cc2ccc(O)cc2)NC(=O)[C@H](CCC(N)=O)NC(=O)[C@H](CCCNC(N)=O)NC(=O)[C@@H](NC(=O)CCC(C)C)CSSC[C@@H](C(N)=O)NC(=O)[C@H](CC(C)C)NC1=O [UPAR-295, iHex-[Cys-Cit-Gln-Tyr-Phe-Pro-Tap-Ile-Leu-Cys]-NH2] ({Pentanoyl(4-Me)}-C[Cit]QYFP[Pro(4R-NH2)]ILC-NH2; disulfide 1-10)
39.8 to 100 nM	10 to 100 nM	CCCCC(=O)N[C@H]1CSSC[C@@H](C(N)=O)NC(=O)[C@H](CCC)NC(=O)[C@H]([C@@H](C)CC)NC(=O)[C@@H]2C[C@@H](O)CN2C(=O)[C@H](CCCCN)NC(=O)[C@H](Cc2ccccc2)NC(=O)[C@H](Cc2ccc(O)cc2)NC(=O)[C@H](CCC(N)=O)NC(=O)[C@H](CCCNC(=N)N)NC1=O [UPAR-298, Pent-[Cys-Arg-Gln-Tyr-Phe-Lys-Hyp-Ile-Nva-Cys]-NH2] (Pentanoyl-CRQYFK[Hyp]I[Nva]C-NH2; disulfide 1-10)

The remaining lines, values behind:

SMILES	IC50 [1]	Kd (human uPAR (uPAR-Fc))
CCCCOC(=O)N[C@H]1CSSC[C@@H](C(N)=O)NC(=O)[C@H](CCC)NC(=O)[C@H]([C@@H](C)CC)NC(=O)[C@@H]2C[C@@H](O)CN2C(=O)[C@@H]2C[C@H](F)CN2C(=O)[C@H](Cc2ccccc2)NC(=O)[C@H](Cc2ccc(O)c(O)c2)NC(=O)[C@H](CCCNC(=O)CN2CCN(CC(=O)O)CCN(CC(=O)O)CCN(CC(=O)O)CC2)NC(=O)[C@H]([C@@H](C)O)NC1=O [UPAR-280, Butoc-[Cys-Thr-Orn(DOTA)-Dopa-Phe-4Cfp-Hyp-Ile-Nva-Cys]-NH2] (Butoxycarbonyl-CT[Orn](DOTA)[Dopa]F[Pro(cis-4-F)][Hyp]I[Nva]C-NH2; disulfide 1-10)	≤ 10 nM	< 1.58 nM
CCCCC(=O)N[C@H]1CSSC[C@@H](C(N)=O)NC(=O)[C@H](CCC)NC(=O)[C@H]([C@@H](C)CC)NC(=O)[C@@H]2C[C@@H](O)CN2C(=O)[C@@H]2CCCN2C(=O)[C@H](Cc2ccccc2)NC(=O)[C@H](Cc2ccc(O)cc2)NC(=O)[C@H](CCCCNC(=O)CN2CCN(CC(=O)O)CCN(CC(=O)O)CCN(CC(=O)O)CC2)NC(=O)[C@H](CC(N)=O)NC1=O [UPAR-283, Pent-[Cys-Asn-Lys(DOTA)-Tyr-Phe-Pro-Hyp-Ile-Nva-Cys]-NH2] (Pentanoyl-CNK(DOTA)YFP[Hyp]I[Nva]C-NH2; disulfide 1-10)	≤ 10 nM	< 1.58 nM
CCCCOC(=O)N[C@H]1CSSC[C@@H](C(N)=O)NC(=O)[C@H](CCC)NC(=O)[C@H]([C@@H](C)CC)NC(=O)[C@@H]2C[C@@H](O)CN2C(=O)[C@@H]2C[C@@H](O)CN2C(=O)[C@H](Cc2ccccc2)NC(=O)[C@H](Cc2ccc(O)c(O)c2)NC(=O)[C@H](CCCCNC(=O)CN2CCN(CC(=O)O)CCN(CC(=O)O)CCN(CC(=O)O)CC2)NC(=O)[C@H]([C@@H](C)O)NC1=O [UPAR-284, Butoc-[Cys-Thr-Lys(DOTA)-Dopa-Phe-Hyp-Hyp-Ile-Nva-Cys]-NH2] (Butoxycarbonyl-CTK(DOTA)[Dopa]F[Hyp][Hyp]I[Nva]C-NH2; disulfide 1-10)	≤ 10 nM	< 1.58 nM
CCCCC(=O)N[C@H]1CSSC[C@@H](C(N)=O)NC(=O)[C@H](CCC)NC(=O)[C@H]([C@@H](C)CC)NC(=O)[C@@H]2C[C@@H](O)CN2C(=O)[C@@H]2CCCN2C(=O)[C@H](Cc2ccccc2)NC(=O)[C@H](Cc2ccc(O)cc2)NC(=O)C2(CCN(C(=O)CN3CCN(CC(=O)O)CCN(CC(=O)O)CCN(CC(=O)O)CC3)CC2)NC(=O)[C@H]([C@@H](C)O)NC1=O [UPAR-288, Pent-[Cys-Thr-Apc(DOTA)-Tyr-Phe-Pro-Hyp-Ile-Nva-Cys]-NH2] (Pentanoyl-CT[Api](DOTA)YFP[Hyp]I[Nva]C-NH2; disulfide 1-10)	≤ 10 nM	< 1.58 nM
CCCCOC(=O)N[C@H]1CSSC[C@@H](C(N)=O)NC(=O)[C@H](CCC)NC(=O)[C@H]([C@@H](C)CC)NC(=O)[C@@H]2C[C@@H](F)CN2C(=O)[C@@H]2CCCN2C(=O)[C@H](Cc2ccccc2)NC(=O)[C@H](Cc2ccc(O)cc2)NC(=O)[C@H](CCCCNC(=O)CN2CCN(CC(=O)O)CCN(CC(=O)O)CCN(CC(=O)O)CC2)NC(=O)[C@H]([C@@H](C)O)NC1=O [UPAR-289, Butoc-[Cys-Thr-Lys(DOTA)-Tyr-Phe-Pro-4Tfp-Ile-Nva-Cys]-NH2] (Butoxycarbonyl-CTK(DOTA)YFP[Pro(trans-4-F)]I[Nva]C-NH2; disulfide 1-10)	≤ 10 nM	< 1.58 nM
CCCCC(=O)N[C@H]1CSSC[C@@H](CO)NC(=O)[C@H](CCC)NC(=O)[C@H]([C@@H](C)CC)NC(=O)[C@@H]2C[C@@H](O)CN2C(=O)[C@@H]2CCCN2C(=O)[C@H](Cc2ccccc2)NC(=O)[C@H](Cc2ccc(O)cc2)NC(=O)[C@H](CCC(N)=O)NC(=O)[C@H](CCCNC(N)=O)NC1=O [UPAR-292, Pent-[Cys-Cit-Gln-Tyr-Phe-Pro-Hyp-Ile-Nva-Cysol]-OH] (Pentanoyl-C[Cit]QYFP[Hyp]I[Nva]; linker 1-C via X9)	≤ 10 nM	< 1.58 nM
CCC[C@H](NC(=O)CCC(=O)O)C(=O)N[C@H]1CSSC[C@@H](C(N)=O)NC(=O)[C@H](CCC)NC(=O)[C@H]([C@@H](C)CC)NC(=O)[C@@H]2C[C@@H](O)CN2C(=O)[C@@H]2CCCN2C(=O)[C@H](Cc2ccccc2)NC(=O)[C@H](Cc2ccc(O)cc2)NC(=O)[C@H](CCCCNC(=O)CN2CCN(CC(=O)O)CCN(CC(=O)O)CCN(CC(=O)O)CC2)NC(=O)[C@H]([C@@H](C)O)NC1=O [UPAR-297, Succinyl-Nva-[Cys-Thr-Lys(DOTA)-Tyr-Phe-Pro-Hyp-Ile-Nva-Cys]-NH2] (Suc-[Nva]CTK(DOTA)YFP[Hyp]I[Nva]C-NH2; disulfide 2-11)	≤ 10 nM	< 1.58 nM
